{"source": "patent US12134611B2", "about": "“Compounds and compositions for treating conditions associated with NLRP activity” (Novartis AG, priority 2018, dated 2024)", "data": [{"biological_target": "T1, hNLRP3 (Homo sapiens, UniProt Q96P20)", "T1 construct": "THP-1 cells were purchased from the American Type Culture Collection; host or cells: THP-1 cells, PMA-differentiated, stimulated with gramicidin", "T1 sequence (Q96P20 whole entry)": "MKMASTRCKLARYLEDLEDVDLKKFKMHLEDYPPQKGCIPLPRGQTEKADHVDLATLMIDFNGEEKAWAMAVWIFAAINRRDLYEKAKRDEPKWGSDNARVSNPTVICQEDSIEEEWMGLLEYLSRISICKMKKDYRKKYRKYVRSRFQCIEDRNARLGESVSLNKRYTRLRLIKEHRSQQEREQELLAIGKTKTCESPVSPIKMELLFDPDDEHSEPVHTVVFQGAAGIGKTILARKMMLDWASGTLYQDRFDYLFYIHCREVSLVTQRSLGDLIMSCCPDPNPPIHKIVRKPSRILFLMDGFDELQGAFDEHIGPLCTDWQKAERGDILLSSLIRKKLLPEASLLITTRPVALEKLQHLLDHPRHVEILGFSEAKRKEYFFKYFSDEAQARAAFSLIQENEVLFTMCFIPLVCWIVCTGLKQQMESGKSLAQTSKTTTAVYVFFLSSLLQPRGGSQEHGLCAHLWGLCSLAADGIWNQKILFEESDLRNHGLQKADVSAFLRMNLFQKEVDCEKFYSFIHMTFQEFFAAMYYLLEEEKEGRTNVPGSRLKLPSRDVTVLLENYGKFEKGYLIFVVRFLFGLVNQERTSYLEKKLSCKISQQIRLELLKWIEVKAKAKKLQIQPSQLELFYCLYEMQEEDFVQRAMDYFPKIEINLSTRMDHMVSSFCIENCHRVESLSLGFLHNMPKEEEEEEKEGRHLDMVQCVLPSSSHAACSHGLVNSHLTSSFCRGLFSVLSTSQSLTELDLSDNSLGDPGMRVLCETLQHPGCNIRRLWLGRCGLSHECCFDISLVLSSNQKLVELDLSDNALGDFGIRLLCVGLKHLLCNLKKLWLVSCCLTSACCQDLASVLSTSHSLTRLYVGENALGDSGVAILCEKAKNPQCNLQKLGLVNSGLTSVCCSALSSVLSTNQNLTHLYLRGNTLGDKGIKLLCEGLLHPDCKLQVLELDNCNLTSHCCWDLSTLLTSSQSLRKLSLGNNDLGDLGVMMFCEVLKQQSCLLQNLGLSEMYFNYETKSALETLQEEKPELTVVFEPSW", "assay": "IL-1β production in PMA-differentiated THP-1 cells stimulated with gramicidin (hTHP-1 assay)", "format": "cell-based", "conditions": "read-out: NLRP3 Antagonist, hNLRP3 (THP-1, IL-1b) Normalized: GeoMean IC50", "method": "Procedure 1: IL-1β Production in PMA-Differentiated THP-1 Cells Stimulated with Gramicidin.\nTHP-1 cells were purchased from the American Type Culture Collection and sub-cultured according to instructions from the supplier. […] Prior to the experiment, compounds were dissolved in dimethyl sulfoxide (DMSO) to generate a 30 mM stock. […] DMSO was backfilled in the plate to achieve a final DMSO assay concentration of 0.37%. The plate was then sealed and stored at room temperature until required.\nTHP-1 cells were treated with PMA (Phorbol 12-myristate 13-acetate) (20 ng/ml) for 16-18 hours. On the day of the experiment the media was removed and adherent cells were detached with trypsin for 5 minutes.\nProcedure 2: IL-1β Production in PMA-Differentiated THP-1 Cells Stimulated with Gramicidin.\nTHP-1 cells were purchased from the American Type Culture Collection and sub-cultured according to instructions from the supplier. […] Prior to the experiment THP-1 were treated with PMA (Phorbol 12-myristate 13-acetate) (20 ng/ml) for 16-18 hours. Compounds were dissolved in dimethyl sulfoxide (DMSO) to generate a 30 mM stock. On the day of the experiment the media was removed and adherent cells were detached with trypsin for 5 minutes. […] Final DMSO concentration was at 0.37%. Cells were incubated with compounds for 1 hour and then stimulated with gramicidin (5 μM) (Enzo) for 2 hours. Plates were then centrifuged at 340 g for 5 min. Cell free supernatant (40 μL) was collected using a 96-channel PlateMaster (Gilson) and the production of IL-1β was evaluated by HTRF (cisbio).\n1. Experimental procedure\n1.2 Compound Preparation • Prepare the 3-fold serial dilution of the compounds with DMSO in a 384-well LDV Microplate using TECAN EVO system to generate the compound source plate with 10 concentrations. Top concentration is 30 mM. FIG. 5 depicts the layout of the microplate.\nFIG. 5 depicts the layout of the plates: HC: 100 μM CRID3 (MCC950)+5 μM gramicidin LC: 5 μM Gramicidin.\n1.5 IL-1β Detection • 1) Homogenize the 5× diluent #5 with a vortex and add 1 volume of stock solution in 4 volumes of distilled water. • 2) Thaw 20× stock solution of anti-IL1β-Cryptate-antibody and anti-IL1β XL-antibody. […] 2. Data Analysis: • 1.", "units": {"IC50": "µM"}, "values": [{"smiles": "Cc1c(C2CC2)nc2c(c1NC(=O)N=S1(=O)NC(=O)c3ccc(C(C)(C)O)cc31)CCC2", "note": "(centres unmarked) [Compound 105, 1-(2-cyclopropyl-3-methyl-6,7-dihydro-5H-cyclopenta[b]pyridin-4-yl)-3-(6-(2-hydroxypropan-2-yl)-1-oxido-3-oxo-2,3-dihydro-1l4-benzo[d]isothiazol-1-ylidene)urea]", "IC50": "0.2 to 1"}, {"smiles": "CC(C)(O)c1ccc2c(c1)S(=O)(=NC(=O)Nc1c3c(nc(C4CC4)c1C1CC1)CCC3)NC2=O", "note": "(centres unmarked) [Compound 106, 1-(2,3-dicyclopropyl-6,7-dihydro-5H-cyclopenta[b]pyridin-4-yl)-3-(6-(2-hydroxypropan-2-yl)-1-oxido-3-oxo-2,3-dihydro-1l4-benzo[d]isothiazol-1-ylidene)urea]", "IC50": "1 to 5"}, {"smiles": "CN1Cc2ccccc2S1(=O)=NC(=O)Nc1c2c(cc3c1CCC3)CCC2", "note": "(centres unmarked) [Compound 107]", "IC50": "> 30"}, {"smiles": "Cc1c(C(F)(F)F)nc2c(c1NC(=O)N=S1(=O)NC(=O)c3ccc(C(C)(C)O)cc31)CCC2", "note": "(centres unmarked) [Compound 108, 1-(6-(2-hydroxypropan-2-yl)-1-oxido-3-oxo-2,3-dihydro-1l4-benzo[d]isothiazol-1-ylidene)-3-(3-methyl-2-(trifluoromethyl)-6,7-dihydro-5H-cyclopenta[b]pyridin-4-yl)urea]", "IC50": "1 to 5"}, {"smiles": "CC(C)c1cc(F)cc(C(C)C)c1CC(=O)N=S1(=O)NC(=O)c2ccc(C(C)(C)O)cc21", "note": "(centres unmarked) [Compound 109]", "IC50": "> 30"}, {"smiles": "CN(C)Cc1ccc2c(c1)S(=O)(=NC(=O)Nc1c3c(cc4c1CCC4)CCC3)NC2=O", "note": "(centres unmarked) [Compound 110, 1-(6-((dimethylamino)methyl)-1-oxido-3-oxo-2,3-dihydro-1l4-benzo[d]isothiazol-1-ylidene)-3-(1,2,3,5,6,7-hexahydro-s-indacen-4-yl)urea]", "IC50": "1 to 5"}, {"smiles": "CC(C)(O)c1ccc2c(c1)S(=O)(=NC(=O)Nc1c3c(cc4c1CC4)CCC3)NC2=O", "note": "(centres unmarked) [Compound 112, 1-(6-(2-hydroxypropan-2-yl)-1-oxido-3-oxo-2,3-dihydro-1l4-benzo[d]isothiazol-1-ylidene)-3-(2,4,5,6-tetrahydro-1H-cyclobuta[f]inden-3-yl)urea]", "IC50": "0.2 to 1"}, {"smiles": "O=C1CCCS(=O)(=NC(=O)Nc2c3c(cc4c2CCC4)CCC3)N1", "note": "(centres unmarked) [Compound 113, 1-(1,2,3,5,6,7-hexahydro-s-indacen-4-yl)-3-(1-oxido-3-oxo-1l6,2-thiazinan-1-ylidene)urea]", "IC50": "1 to 5"}, {"smiles": "CC(C)(O)c1ccc2c(c1)S(=O)(=NC(=O)Cc1cc3c(c4c1CCC4)CCC3)NC2=O", "note": "(centres unmarked) [Compound 114, 2-(1,2,3,6,7,8-hexahydro-as-indacen-4-yl)-N-(6-(2-hydroxypropan-2-yl)-1-oxido-3-oxo-2,3-dihydro-1l4-benzo[d]isothiazol-1-ylidene)acetamide]", "IC50": "> 30"}, {"smiles": "CC(C)(O)c1ccc2c(c1)S(=O)(=NC(=O)Cc1c3c(cc4c1CCC4)CCC3)NC2=O", "note": "(centres unmarked) [Compound 115, 2-(1,2,3,5,6,7-hexahydro-s-indacen-4-yl)-N-(6-(2-hydroxypropan-2-yl)-1-oxido-3-oxo-2,3-dihydro-1l4-benzo[d]isothiazol-1-ylidene)acetamide]", "IC50": "> 30"}, {"smiles": "CN1C(=O)c2ccccc2S1(=O)=NC(=O)Nc1c2c(cc3c1CCC3)CCC2", "note": "(centres unmarked) [Compound 116]", "IC50": "> 30"}, {"smiles": "CC(C)(O)c1ccc2c(c1)S(=O)(=NC(=O)Nc1c3c(nc4c1CCC4)CCC3)NC2=O", "note": "(centres unmarked) [Compound 117]", "IC50": "1 to 5"}, {"smiles": "CC(C)(O)c1ccc2c(c1)S(=O)(=NC(=O)Nc1c3c(nc4c1CCC4(C)C)CCC3)NC2=O", "note": "(centres unmarked) [Compound 118, 1-(3,3-dimethyl-1,2,3,5,6,7-hexahydrodicyclopenta[b,e]pyridin-8-yl)-3-(6-(2-hydroxypropan-2-yl)-1-oxido-3-oxo-2,3-dihydro-1l4-benzo[d]isothiazol-1-ylidene)urea]", "IC50": "1 to 5"}, {"smiles": "O=C(N=S1(=O)CCCN1)Nc1c2c(cc3c1CCC3)CCC2", "note": "(centres unmarked) [Compound 119, 1-(1,2,3,5,6,7-hexahydro-s-indacen-4-yl)-3-(1-oxido-1l6-isothiazolidin-1-ylidene)urea]", "IC50": "5 to 30"}, {"smiles": "CC(C)(O)c1ccc2c(c1)C(=O)NS2(=O)=NC(=O)Nc1c2c(cc3c1CCC3)CCC2", "note": "(centres unmarked) [Compound 121, 1-(1,2,3,5,6,7-hexahydro-s-indacen-4-yl)-3-(5-(2-hydroxypropan-2-yl)-1-oxido-3-oxo-2,3-dihydro-1l4-benzo[d]isothiazol-1-ylidene)urea]", "IC50": "0.2 to 1"}, {"smiles": "CN(C)Cc1ccc2c(c1)CNS2(=O)=NC(=O)Nc1c2c(cc3c1CCC3)CCC2", "note": "(centres unmarked) [Compound 122, 1-{5-[(dimethylamino)methyl]-1-oxo-2,3-dihydro-1$l6,2-benzothiazol-1-ylidene}-3-(1,2,3,5,6,7-hexahydro-s-indacen-4-yl)urea]", "IC50": "5 to 30"}, {"smiles": "CC(C)c1cc(C(F)F)cc(C(C)C)c1CC(=O)N=S1(=O)NC(=O)c2ccccc21", "note": "(centres unmarked) [Compound 123a]", "IC50": "> 30"}, {"smiles": "CC(C)c1cc(C(F)F)cc(C(C)C)c1CC(=O)N=S1(=O)NC(=O)c2cc(CN(C)C)ccc21", "note": "(centres unmarked) [Compound 124, 2-[4-(difluoromethyl)-2,6-bis(propan-2-yl)phenyl]-N-{5-[(dimethylamino)methyl]-1,3-dioxo-2,3-dihydro-1$l6,2-benzothiazol-1-ylidene}acetamide]", "IC50": "> 30"}, {"smiles": "CN(C)Cc1ccc2c(c1)C(=O)NS2(=O)=NC(=O)Nc1c2c(cc3c1CCC3)CCC2", "note": "(centres unmarked) [Compound 125, 1-{5-[(dimethylamino)methyl]-1,3-dioxo-2,3-dihydro-1$l6,2-benzothiazol-1-ylidene}-3-(1,2,3,5,6,7-hexahydro-s-indacen-4-yl)urea]", "IC50": "5 to 30"}, {"smiles": "CC(C)(O)c1ccc2c(c1)S(=O)(=NC(=O)Nc1c3c(cc4c1CCC4)CCC3)NC2", "note": "(centres unmarked) [Compound 126, 1-(1,2,3,5,6,7-hexahydro-s-indacen-4-yl)-3-[6-(2-hydroxypropan-2-yl)-1-oxo-2,3-dihydro-1-^λ-6,2-benzothiazol-1-ylidene]urea]", "IC50": "> 30"}, {"smiles": "O=C(Nc1c2c(cc3c1CCC3)CCC2)NS1(=O)=NC(=O)c2ccc(Cl)cc21", "note": "(centres unmarked) [Compound 128, 3-(6-chloro-1,3-dioxo-2,3-dihydro-1-^λ-6,2-benzothiazol-1-ylidene)-1-(1,2,3,5,6,7-hexahydro-s-indacen-4-yl)urea]", "IC50": "5 to 30"}, {"smiles": "O=C(N=S1(=O)CC2(COC2)C(=O)N1)Nc1c2c(cc3c1CCC3)CCC2", "note": "(centres unmarked) [Compound 132, 1-(1,2,3,5,6,7-hexahydro-s-indacen-4-yl)-3-(6-oxido-8-oxo-2-oxa-6l6-thia-7-azaspiro[3.4]octan-6-ylidene)urea]", "IC50": "1 to 5"}, {"smiles": "CN(C)Cc1ccc2c(c1)S(=O)(=NC(=O)Nc1c3c(cc4c1CCC4)CCC3)NC2", "note": "(centres unmarked) [Compound 133, 1-(6-((dimethylamino)methyl)-1-oxido-2,3-dihydro-1l4-benzo[d]isothiazol-1-ylidene)-3-(1,2,3,5,6,7-hexahydro-s-indacen-4-yl)urea]", "IC50": "5 to 30"}, {"smiles": "COC(=O)c1ccc2c(c1)S(=O)(=NC(=O)Nc1c3c(cc4c1CCC4)CCC3)NC2=O", "note": "(centres unmarked) [Compound 134, methyl 1-(((1,2,3,5,6,7-hexahydro-s-indacen-4-yl)carbamoyl)imino)-3-oxo-2,3-dihydro-1H-1l4-benzo[d]isothiazole-6-carboxylate 1-oxide]", "IC50": "5 to 30"}, {"smiles": "O=C(N=S1(=O)CC2(CN1)COC2)Nc1c2c(cc3c1CCC3)CCC2", "note": "(centres unmarked) [Compound 139b]", "IC50": "> 30"}, {"smiles": "O=C(N=S1(=O)NC(=O)c2ccc(CN3CCC3)cc21)Nc1c2c(cc3c1CCC3)CCC2", "note": "(centres unmarked) [Compound 204, 1-(6-(azetidin-1-ylmethyl)-1-oxido-3-oxo-2,3-dihydro-1l4-benzo[d]isothiazol-1-ylidene)-3-(1,2,3,5,6,7-hexahydro-s-indacen-4-yl)urea]", "IC50": "0.2 to 1"}]}]}
